# From patent US11214567B2, “Small molecule inhibitors of MYC and uses thereof” (The Regents of the University of Michigan, priority 2017, dated 2022)
# Entries after “also recorded” stand apart in the source; their conditions may differ.
# Assays:
# [1] = test system: NCI/ADR-RES cells; assay: Colony formation assay; assay type: cell-based, human; conditions: 24 h treatment; low concentration
# Procedure: Colony formation assay. Colony formation assay is an in vitro cell survival assay based on the ability of a single cell to grow into a colony. This technique was also performed to confirm the activity. Briefly, cells were plated in 96-well plates at a density of 300 cells/well and allowed to attach overnight. The next day, the corresponding compounds were added and allowed to incubate for 24 h. After exposure, cells were changed the new media and cultured until colonies were formed (7-10 days). Cells were subsequently washed and stained with a solution of crystal violet for 30 min. After staining, cells were thoroughly washed with water. Colonies were imaged on the inverted fluorescence microscope and were counted using ImageJ software.
# [2] = test system: SKOV3; assay: MTT assay (cytotoxicity), SKOV3; assay type: cell-based; conditions: Homo sapiens, SK-OV-3, 72 h, drug concentration causing a 50% decrease in cell population
# Procedure: (§1) The evaluation of cytotoxicity was based on the reduction of MTT dye by viable cells to give purple formazan products, which can be measured spectrophotometrically at 540 nm. One hundred eighty microliters of cancer cells were seeded into 96-well plates at 3,500-4,000 cells/well and incubated at 37° C. overnight before the indicated treatments. After 72 h, 20 μl of MTT solution (3 mg/ml) was added and incubated again for 3 h. After removal of media and solubilization of formazan crystals in 150 μL of DMSO, the absorbance was measured at 570 nm. Percentage of cell growth inhibition was expressed as 1-[(A−B)/(C−B)]×100% (A, B and C were the absorbance values from experimental, blank and control cells, respectively).
# (§2) KJA derivatives were tested by the MTT assay against five human cancer cell lines including ovarian cancer cell lines (OVCAR-8, NCI/ADR-RES and SKOV3) and pancreatic cancer cell lines (MIA PaCa-2 and Pac-1). […] It is important to note that the NCI/ADR-RES cell line shares a large number of karyotypic abnormalities with OVCAR-8 but expresses high levels of MDR1 (multidrug resistance protein 1)/P-glycoprotein (see, e.g., Xu, S.; et al., Proceedings of the National Academy of Sciences 2012, 109, 16348-16353), resulting in resistance to multiple anticancer drugs in clinical use, including paclitaxel and doxorubicin.
# [3] = test system: Panc1; assay: MTT assay (cytotoxicity), Panc1; assay type: cell-based; conditions: Homo sapiens, PANC-1, 72 h, drug concentration causing a 50% decrease in cell population
# Procedure: as §1, §2
# [4] = test system: C-MYC; assay: Western blotting of C-MYC protein levels in cancer cells; assay type: cell-based, human
# Procedure: Cells (5×10^5) were cultured in 6-well plate and treated with KJA03 at designated concentrations. After treatment, cells were lysed with cell lysis buffer on ice at 4° C., sonicated for 3 min, centrifuged (12,000 rpm, 10 min, 4° C.) and then, the supernatant was collected. Protein concentrations of supernatants were evaluated with BCA assay. Proteins were resolved in 10% SDS/PAGE and electrotransferred to Immun-Blot PVDF membrane (Bio-Rad). After blocking with 5% milk in TBST (Tris-buffered saline with 0.1% Tween 20), membranes were probed with primary antibodies (anti-PARP, anti-caspase 3 and anti-GAPDH) 1:1000 dilutions overnight at 4° C. Membranes were then washed with TBST (5 min×3), incubated with Dylight 800-conjugated secondary antibodies 1:7500 dilutions in 5% milk for 1 h at room temperature, and washed with TBST (5 min×3). Fluorescent signal was then scanned by Odyssey Imaging Systems (LI-COR Biosciences).
# The effect of KJA03 on the MYC protein levels, including C-MYC and N-MYC, NCI/ADR-RES cells were treated with KJA03 at concentration of 0.1 (half IC50) and 0.2 (IC50) μM for 24 and 48 h. […] It has previously been reported that JQ1 treatment leads to down-regulation of c-MYC protein levels in osteosarcoma, leukemia and lymphoma cells (see, e.g., Mertz, J. A.; et al., Proceedings of the National Academy of Sciences 2011, 108, 16669-16674).
# Experiments were conducted to further repeat the experiment and JQ1 was chosen as a positive control. As expected, expression of C-MYC was reduced by KJA03 at 24 h of treatment, correlated with previous experiment (FIG. 3).
# Experiments were conducted that further performed a time-course experiment to evaluate C-MYC suppression including 2, 6, 8 24 and 48 h at concentration of 0.2 μM. To define the specificity of MYC suppression in further detail, we treated cells with a range of compound concentrations at 24 h. […] To determine whether KJA03 can suppress C-MYC in different cell lines, we next investigated the level of C-MYC in response to treatment with KJA03 at 0.2 μM using other three different OVCAR8, MIA PaCa-2 and Panc-1 cell lines.
structure (smiles),measurement,setting,value
"Cc1ccc(-c2noc(-c3ccccc3-n3c(-c4ccc(C)cc4)noc3=O)n2)cc1 [KJA03, 3-(P-tolyl)-4-(2-(3-(p-tolyl)-1,2,4-oxadiazol-5-yl)phenyl)-1,2,4-oxadiazol-5(4H)-one]",colony formation in NCI/ADR-RES,[1],significantly inhibited colony formation
same,IC50,[2],0.31 ± 0.16 µM
same,IC50,[3],0.17 µM
same,"MYC suppression, ovarian versus pancreatic cancer cells","[4]; 0.2 μM, OVCAR8, NCI/ADR-RES, MIA PaCa-2 and Panc-1",suppresses MYC strongly in ovarian cancer cells
same,MYC protein levels,[4]; 0.1 (half IC50) and 0.2 (IC50) μM at 24 and 48 h,significantly reduce MYC protein levels
same,"C-MYC protein levels, range of concentrations",[4]; MiaPaca-2,down-regulated dose-dependently
same,C-MYC protein levels,"[4]; NCI/ADR-RES cells, 0.2 μM, 24 h",reduced C-MYC levels; also recorded: efficiently decrease the C-MYC protein levels
same,"C-MYC suppression, time-course","[4]; NCI/ADR-RES, 0.2 μM, 2, 6, 8, 24 and 48 h",significantly suppressed only at 24 h
same,"C-MYC protein levels, range of concentrations","[4]; NCI/ADR-RES, 24 h",decreased levels of C-MYC in a dose-dependent manner; also recorded: down-regulated dose-dependently
same,"C-MYC protein levels, range of concentrations",[4]; OVCAR8,down-regulated dose-dependently
same,"C-MYC protein levels, range of concentrations",[4]; Pac-1,down-regulated dose-dependently
